According to US20250099530A1, “COMPOUND FOR USE IN PREVENTING AND/OR TREATING AN INFECTION CAUSED BY SARS-COV-2” (priority 2022, published 2025):
Entries after “also recorded” stand apart in the source; their conditions may differ.

Tests used:
SARS-CoV-2 [1] = assay: COVID-19 golden Syrian hamster model; type: in vivo; settings: for viral replication decrease in the lungs compared to vehicle / viral load and viral replication in the lungs: 10 mg/kg IP on Day 0 (t+1 h) and Day 1, lungs at 2 dpi; for viral load and viral replication in the lungs: versus untreated groups; for clinical scores and body weight change vs Day 0: 10 mg/kg IP on Day 0 (t+1 h) and Day 1, versus infected untreated group
caspase = settings: cited from earlier work
HIV = settings: cited from earlier work
SARS-CoV-2 [2] = settings: cited from earlier work
SIV = settings: SIV-infected rhesus macaques; cited from earlier work
SARS-CoV-2 [3] = assay: Antiviral activity, full treatment: Spike staining by flow cytometry and western blot of S and N proteins in infected cells; type: cell-based, SARS-CoV-2 strain BetaCoV/France/IDF0372/2020
Procedure: A) Vero E6/TMPRSS2 cells non infected or infected with the SARS-CoV-2 at MOI 0.05 were incubated with different concentrations of QVDM-OPh (10, 25, 50, 100 μM), Vx765 (25 μM) or Remdesivir (10 μM) for 1 h, before the infection. Afterwards, the cells were cultured with drug-containing medium until the end of the experiment (Full treatment) without removing the virus from the culture. After 72 h post-infection, cells were collected and stained for mortality and infection rate analysis. The % of infection is represented in each plot of analysis.
B) Results represent the % of infection detected by the Spike protein staining in the different infected and treated cells compared to the infected untreated group. Results represent mean+/−SD of 4 independent experiments with 3 independent points for each condition separately. Statistical significance was assessed applying One-way ANOVA test followed by Dunnett's post-hoc test using GraphPad Prism software (GraphPad Software Inc., USA). (****P<0.0001).
A-B) Vero E6/TMRPSS2 cells were pre-treated with QVDM-OPh peptide or Remdesivir at the indicated concentrations for 1 h, before the infection with the virus at MOI=0.05. Afterwards, the cells were cultured with drug-containing medium until the end of the experiment (Full treatment). A well with non-infected cells was performed as a negative control of the infection. At 72 h post-infection, cells were lysed by RIPA buffer and western blot analysis was performed to detect the expression of the Spike protein (S), the full length and S1 domain, and the Nucleocapsid protein (N). GAPDH was used as loading control. Results represent mean±SD, from 4 independent experiments with 3 independent points per condition.
To evaluate the toxicity of the QVDM-OPh on Vero E6 Cells and the antiviral efficacy, the percentage of mortality and the percentage of infected cells were measured by flow cytometry. Cells were cultured overnight in 24-well cell-culture petri-dish with a density of 75×10^4 cells/well. The next day, cells were pretreated or not for 1 h with the different doses of the indicated QVDM-OPh, Vx765 or Remdesivir at different concentrations. Then, the virus was subsequently added at MOI 0.05 to allow infection for 2 h in 250 μl/well. Afterwards, complete media was added to cell culture to a final volume of 500 μl/well. Drugs were added each day at same concentration to cell culture. At 72 h post-infection, the cell supernatant was collected and frozen immediately at −80° C. for viral extraction and qRT-PCR amplification. The cells were collected and a part thereof was used to flow cytometry analysis to measure the rate of infection using an intracellular staining against Spike protein (SARS-CoV-2 Spike Protein-Alexa 647, Cat no. 51-6490-82, eBioscience) and a Cytofix/cytoperm fixation permeabilization kit (Cat no. 554714, BD) according to the manufacturer's instructions. Toxicity was analysed using Viability 405/452 Fixable Dye (Cat no. 130-109-814, from Miltenyi Biotec) according to the manufacturer's instructions. […] After the staining, the cells were fixed with 2% Paraformaldehyde (FPA) and then analyzed on a Fortessa Flow Cytometer. 30 000 events were recorded for each condition in triplicate. […] The other part of the cells was lysed in RIPA lysis buffer (Invitrogen, Cat no. 10230544) containing protease (Roche) and phosphatase inhibitors (Invitrogen) for further quantification and immunoblotting analysis, or in LBP buffer for RNA purification and RT-qPCR analysis. […]

SARS-CoV-2 [4] = assay: Intracellular qRT-PCR of SARS-CoV-2 S, N and NSP6 genes in infected cells, full treatment; type: cell-based, SARS-CoV-2 strain BetaCoV/France/IDF0372/2020; settings: 72 h post-infection, normalized to GAPDH
SARS-CoV-2 [5] = assay: Virus yield in infected cell supernatants by qRT-PCR (N and NSP6 genes); type: cell-based, SARS-CoV-2 strain BetaCoV/France/IDF0372/2020
[6] = Severe acute respiratory syndrome coronavirus 2, 72 h, read-out: inhibition of the viral replication
[7] = full treatment, 72 h post-infection

| SMILES | viral replication decrease in the lungs compared to vehicle (SARS-CoV-2 [1]) [%] | viral load and viral replication in the lungs (SARS-CoV-2 [1]) | clinical scores and body weight change vs Day 0 (SARS-CoV-2 [1]) | caspase inhibitory activity (caspase) | HIV viral replication (HIV) | control of an in vitro infection caused by SARS-CoV-2 (SARS-CoV-2 [2]) | toxicity (SARS-CoV-2 [2]; in vitro) | AIDS disease progression (SIV) | control of SARS-CoV-2 infection in vitro (SARS-CoV-2 [3]; 25 μM and 50 μM) | inhibition at 10 µM (SARS-CoV-2 [3]; [6]) [%] | inhibition at 25 µM (SARS-CoV-2 [3]; [6]) [%] | inhibition at 50 µM (SARS-CoV-2 [3]; [6]) [%] | reduction of viral replication compared with Remdesivir (SARS-CoV-2 [3]; [7]) | relative expression of the Spike, Nucleocapsid and NSP6 genes inside the cells (SARS-CoV-2 [4]) | SARS-CoV-2 in the supernatant (N and NSP6 gene qRT-PCR) (SARS-CoV-2 [5]; [7]) | inhibition of secretion/production of the virus from the cell to the media, compared with QVD-OPh (SARS-CoV-2 [5]; identical concentration, full treatment and post-entry (FIGS. 5 and 9)) | toxicity (Vero E6/TMPRSS2 cells; 25 μM and 50 μM) | toxicity effect on Vero E6/TMPRSS2 cells (Vero E6/TMPRSS2 cells; different concentrations (25, 50, 100 μM each day), cells infected or not at MOI 0.05, 72 h post-infection) |
| --- | --- | --- | --- | --- | --- | --- | --- | --- | --- | --- | --- | --- | --- | --- | --- | --- | --- | --- |
| CC(C)C(NC(=O)c1ccc2ccccc2n1)C(=O)NC(CCC(=O)O)C(=O)COc1c(F)cccc1F (stereo not shown) [QVE-OPh] | 52 | significant reduction | encouraging results | no caspase inhibitory activity | same anti-viral effect | highly effective | without any toxicity |  |  |  |  |  |  |  |  |  |  |  |
| CC(C)C(NC(=O)c1ccc2ccccc2n1)C(=O)NC(CC(=O)O)C(=O)COc1c(F)cccc1F (stereo not shown) [QVD-OPh] |  |  |  | broad caspase inhibitor | inhibits also the viral replication; also recorded: same anti-viral effect |  |  | AIDS disease progression is prevented |  |  |  |  |  |  |  |  |  |  |
| COC(=O)CC(NC(=O)C(NC(=O)c1ccc2ccccc2n1)C(C)C)C(=O)COc1c(F)cccc1F (stereo not shown) [QVDM-OPh] | 70 | significant reduction | encouraging results | pan-caspase inhibitor | same anti-viral effect |  |  |  | highly effective | ~50 | ~70 | ~99 | comparable | reduce significantly | significantly reduce | more efficiently than QVD-OPh | without any toxicity | no toxicity effect |
